Laboratory results: US12702654B2, “Compositions and methods for treating homocystinuria and other conditions using polyamines” (THE REGENTS OF THE UNIVERSITY OF COLORADO, priority 2020, dated 2026)

Experiments:
HO HCU mice [1] = test: Plasma metabolite levels (tHcy, methionine cycle amino acids, SAM, SAH) in HO HCU mice; assay type: in vivo, mouse
Method: It is noted that WT mice (n=6) include untreated controls. HO HCU mice (N=8, 4 of each sex in each group) were either untreated or treated with about 3.0% (w/v) glycine w/v or about 3.0% (w/v) serine given in drinking water supplied ad libitum for one week. Plasma samples were taken and Hcy and cysteine levels were determined. *** denotes a P value <0.0001.
In accordance with these methods, HO HCU mice (N=8, 4 of each sex in each group) were treated with either about 3.0% glycine w/v or about 3.0% w/v serine given in drinking water supplied ad libitum for one week in the presence and absence of about 3.0% w/v betaine. Plasma samples were taken from the mice at various times and Hcy levels were determined.
Plasma Hcy levels were determined from HO HCU mice (n=8 per group) in the presence and absence of either about 5.0% w/v sodium formate alone or in combination with about 3.0% betaine given in drinking water given ad libitum.
In one exemplary method, mice were given zinc in drinking water. For this example, 8 HO HCU mice were provided drinking water supplemented with zinc (e.g. 0.05% w/v Zinc sulfate) given ad libitum for one week.
(§1) In another exemplary method, the transsulfuration pathway and methionine-folate cycle pathways, as show in the sematic illustrated in FIG. 18A, were assessed. In brief, three experimental groups (n=8 for each group) of male mice consisting of either untreated WT controls or HO HCU mice in the presence or absence of betaine treatment. Betaine was administered by dissolving the compound in drinking water at 30 g/l and was supplied ad libitum to the mice for one week. Treatment water was replenished twice per week.
(§2) A comparative reference data set was generated for these mice by examining plasma levels of tHcy, methionine, cysteine, serine, glycine, dimethylglycine, methylglycine (MG, SAM and SAH). In brief, determination of plasma levels of amino acids relevant to the methionine cycle were determined using methods similar to those described in Stabler et al., Blood. 81 (1993) 3404-3413, incorporated in its entirety herein. Determination of hepatic 5-methylTHF was performed by liquid chromatography-tandem mass spectrometry using methods similar to those described in Witham et al., PLoS One. 8 (2013) e77923, incorporated in its entirety herein. The global metabolomic analysis of methionine and folate cycle related metabolites was carried out by Metabolon, Inc. Briefly, sample preparation was performed utilizing the automated MicroLab STAR® system. Sample preparation was performed using a proprietary series of organic and aqueous extractions to remove the protein fraction while allowing maximum recovery of small molecules. The resulting extract was divided into two fractions: one for analysis by liquid chromatography and one for analysis by gas chromatography. Each sample was then frozen and dried under vacuum. The LC/mass spectrometer portion of the platform was based on a Waters ACQUITY UPLC and a Thermo-Finnigan LTQ mass spectrometer, which consisted of an electrospray ionization source and linear ion-trap mass analyzer. Samples were analyzed on a Thermo-Finnigan Trace DSQ fast-scanning single-quadrupole mass spectrometer using electron impact ionization. Identification of known chemical entities was based on comparison to library entries of authenticated standards. Tissue polyamines putrescine, spermidine and spermine and 5-methylthioadenosine (MTA) were determined by liquid chromatography-tandem mass spectrometry using methods similar to those described in Stevens et al., J Chromatogr A 1217 (2010) 3282-3288, incorporated in its entirety herein.

ApoA-1 = ApoA-1 expression in HO model; assay type: in vivo, mouse; details: one-week treatment protocol
Method: as §1

[2] = mouse, in vivo
Method: as §1
To investigate the effects of these treatments upon the hepatic regulatory changes in enzyme expression induced by HCU, the human transgenic HO mouse model of HCU was used. In brief, experimental groups consisting of 8 HO mice on a C57BL/6J background and 8 C57BL/6J WT littermate control mice bred in house were used. Mice in both groups were male and aged between 3 and 4 months. Except where otherwise stated, all mice were maintained on standard chow. All diets were administered using a paired-feeding design to ensure isocaloric intake between all experimental groups and body weights were measured once per week. There was no significant difference in body weight between mice in any of the experimental groups. […]

HO HCU mice [3] = test: Hepatic metabolomic analysis / hepatic 5-methylTHF in HO HCU mice; assay type: in vivo, mouse
Description: As illustrated in one example, see FIG. 2, HCU (HO) induced a significant accumulation of hepatic 5-methyl-THF which by sequestering one carbon units had the potential to decrease the available pool of THF available to the betaine pathway for lowering Hcy. FIG. 2 illustrates an example of hepatic metabolomic analysis of HO and WT controls compared to an HO mouse treated with betaine. Comparative hepatic metabolomic analysis of HO mice and WT controls illustrated about a 10-fold accumulation in the MTHFR product 5-MeTHF. Betaine treatment alone reduced 5-MeTHF by about 15-25%. Data illustrated in FIG. 2 was derived from the livers of 8 (4 male, 4 female) individual HO or WT or HO Betaine mice per group. Betaine was given at 2% w/v in drinking water given ad libitum. P<0.0001 vs WT.
as §2

MTHFR = test: Western blotting of hepatic MTHFR expression; assay type: in vivo, mouse; details: HO mice, 30 g/l in drinking water ad libitum, one week
Method: (§3) To investigate the effects of these treatments upon the hepatic regulatory changes in enzyme expression induced by HCU, the human transgenic HO mouse model of HCU was used. In brief, experimental groups consisting of 8 HO mice on a C57BL/6J background and 8 C57BL/6J WT littermate control mice bred in house were used. Mice in both groups were male and aged between 3 and 4 months. Except where otherwise stated, all mice were maintained on standard chow. All diets were administered using a paired-feeding design to ensure isocaloric intake between all experimental groups and body weights were measured once per week. There was no significant difference in body weight between mice in any of the experimental groups. Betaine and taurine were in this example, both administered by dissolving these compounds in drinking water at 30 g/l ([…] 3% w/v) and were supplied ad libitum for one week. Treatment water was replenished twice per week.
Western blotting analysis of SAHH, MTHFR and SHMT2 expression was performed in liver samples from HO mice in the presence and absence of betaine or taurine treatment.

MAT1A = test: Western blotting of hepatic MAT1A expression; assay type: in vivo, mouse; details: HO HCU mice, 30 g/l in drinking water ad libitum, one week
Method: as §3
These observations are the first to report betaine and taurine acting to regulate expression of these processes. Therefore, this observation supports that taurine alone or in combination with betaine and other treatments for genetic homocystinuria are viable options for avoiding dietary restraints and treating these conditions.

[4] = HO HCU mice, betaine 30 g/l in drinking water, one week
[5] = HO model, betaine treatment, P<0.0001
[6] = HO HCU mice, one week of betaine treatment

C[N+](C)(C)CC(=O)O [betaine, N,N,N-trimethylglycine]
increase of plasma Met compared to untreated HCU mice (HO HCU mice [1]; [4]): 3 fold
plasma DMG (HO HCU mice [1]; [4]): strongly increased
plasma MG (HO HCU mice [1]; [4]): strongly increased
plasma SAH (HO HCU mice [1]; [4]): significantly decreased, but not normalized
plasma SAM (HO HCU mice [1]; [4]): significantly decreased, but not normalized
plasma glycine (HO HCU mice [1]; [4]): did not change significantly
plasma serine (HO HCU mice [1]; [4]): did not change significantly
decrease in plasma tHcy (HO HCU mice [1]; HO HCU mice, betaine 30 g/l in drinking water, one week, P<0.0001): ~60%
depletion of plasma total cysteine (HO HCU mice [1]; HO HCU mice, betaine 30 g/l in drinking water, one week, remained lower than WT): significantly ameliorated
decrease in AdoHcy levels (HO HCU mice [1]; [5]): fivefold decrease
plasma DMG (HO HCU mice [1]; [5]): increase
plasma MG (HO HCU mice [1]; [5]): increase
plasma cysteine (HO HCU mice [1]; [5]): increase
plasma methionine (HO HCU mice [1]; [5]): increase
decrease in plasma AdoMet (HO HCU mice [1]; HO model, betaine treatment, P=0.0039): 40%
reduction of Hcy levels by standard treatment alone (HO HCU mice [1]; betaine alone, as previously observed): 15-25%
ApoA-1 expression (ApoA-1): increase ApoA-1 expression
tolerability of doses [2]: well tolerated
HCU-induced decrease in hepatic N-acetylcysteine (HO HCU mice [3]; [6]): reversed
HCU-induced decrease in hepatic cysteine (HO HCU mice [3]; [6]): reversed
hepatic N-acetylserine (HO HCU mice [3]; [6]): Neither of these metabolites were significantly altered
hepatic SAH (HO HCU mice [3]; [6]): did not change significantly
hepatic SAM (HO HCU mice [3]; [6]): did not change significantly
hepatic methionine compared to untreated HO mice (HO HCU mice [3]; [6]): no detectable effect
hepatic serine (HO HCU mice [3]; [6]): Neither of these metabolites were significantly altered
increase of hepatic DMG (HO HCU mice [3]; [6]): 3 to 4 fold
increase of hepatic MG (HO HCU mice [3]; [6]): 3 to 4 fold
lowering of hepatic N-acetlymethionine compared to untreated HO HCU mice (HO HCU mice [3]; [6]): 23%
lowering of hepatic tHcy (HO HCU mice [3]; [6]): approximately 20%
reduction of hepatic 5-MeTHF (HO HCU mice [3]; HO mice, betaine 2% w/v in drinking water ad libitum): 15-25%
HCU-mediated induction of hepatic MTHFR expression (MTHFR): completely reversed
hepatic MAT1a expression (MAT1A): induced expression
